Several values for one entry are separate records, joined by “and”; a condition that tells them apart may be missing. Equal entries are not always repeated.
Legend:
[1] = system: hyperalgesia induced by Freund's complete adjuvant (CFA) in rats; experiment: Weight bearing test, CFA induced hyperalgesia in rats; assay type: in vivo, SD rats; conditions: for Weight Bearing Test Values (Mean ± SD), Baseline: pretreatment, n=8; for Weight Bearing Test Values (Mean ± SD), 15 min: 15 min post treatment; for Weight Bearing Test Values (Mean ± SD), 2 h: 2 h post treatment
Protocol: Compounds 46 and JK-02A were prepared according to the disclosure of US patent application No. US2008/0176920, and compound JK-02H was prepared according to Example 1. A repeat efficacy study was carried out on the same batch of animals with a single-dose treatment followed by a washing-out period. The 14 days in life studies included two stages: a single low dose treatment assessment on the 7th day and then a single high dose treatment test on the 14th day after CFA injection. On the 7th day after CFA injection, the rats were randomly assigned to respective groups using a computer generated randomization procedure based on the body weight and the baseline values of Von Frey and weight bearing test. Animals received corresponding single dose treatments (vehicle and 3 test articles) on the 7th and 14th days after CFA injection, respectively, and the effect of the test compounds were evaluated. Hyperalgesia of all the study animals was assessed following a single low dose treatment with the test articles on day 7, while a single high dose effect of the test article was evaluated on day 14. The mechanical hyperalgesia and weight bearing were measured on day 7 and day 14 after CFA injection, followed by administration of control or test articles. Von Frey filaments and weight bearing were measured on all the study animals at three time points on day 7, and four time points on day 14. An extra time point assessment was conducted on day 14, considering the strong analgesic effect of the test articles at a higher dose noticed during the test at the 3th time point. Rats distributed body weight unequally on the CFA-injected and contra lateral paws, which was measured by a weight balance changing instrument (Bio-medical, USA). The animals were tested in a box constructed to register the weight load exerted by the hind paws by means of force plates inserted in the floor. The mean weight bearing (unit in “g”) between the CFA-injected paw and the contra-lateral paw was determined in 10 seconds. The weight bearing test of all study animals was conducted at the same time intervals as the mechanical hyperalgesia test. All the results were expressed as mean±SD. One-way analysis of variance (ANOVA) followed by a multiple comparison test were applied among the groups, p<0.05 accepted as significant.

[2] = system: hyperalgesia induced by Freund's complete adjuvant (CFA) in rats; experiment: Von Frey filament test, CFA induced hyperalgesia in rats; assay type: in vivo, SD rats; conditions: for Von Frey Filament Test Values (Mean ± SD), Baseline: pretreatment, n=8; for Von Frey Filament Test Values (Mean ± SD), 15 min: 15 min post treatment; for Von Frey Filament Test Values (Mean ± SD), 2 h: 2 h post treatment
Protocol: Compounds 46 and JK-02A were prepared according to the disclosure of US patent application No. US2008/0176920, and compound JK-02H was prepared according to Example 1. A repeat efficacy study was carried out on the same batch of animals with a single-dose treatment followed by a washing-out period. The 14 days in life studies included two stages: a single low dose treatment assessment on the 7th day and then a single high dose treatment test on the 14th day after CFA injection. On the 7th day after CFA injection, the rats were randomly assigned to respective groups using a computer generated randomization procedure based on the body weight and the baseline values of Von Frey and weight bearing test. Animals received corresponding single dose treatments (vehicle and 3 test articles) on the 7th and 14th days after CFA injection, respectively, and the effect of the test compounds were evaluated. Hyperalgesia of all the study animals was assessed following a single low dose treatment with the test articles on day 7, while a single high dose effect of the test article was evaluated on day 14. The mechanical hyperalgesia and weight bearing were measured on day 7 and day 14 after CFA injection, followed by administration of control or test articles. Von Frey filaments and weight bearing were measured on all the study animals at three time points on day 7, and four time points on day 14. An extra time point assessment was conducted on day 14, considering the strong analgesic effect of the test articles at a higher dose noticed during the test at the 3th time point. Mechanical hyperalgesia of the left hind paw was measured before and during the course of study in all animal groups by determining withdrawal thresholds to Von Frey filament (Bioseb, France). Increasing tensile force perpendicular to the plantar surface of the paw was applied to the filaments. The threshold for paw withdrawal was calculated by taking the average of 2-3 repeated stimuli (unit in “g”). On day 7, Von Frey Filament measurements were conducted three times, at the time points of pretreatment, 15 min and 2 hours post treatment. Following a one-week washing out period, on day 14 after CFA injection, Von Frey Filament tests were performed again four times post a single high dose administration. Rats treated with vehicle or high dose test articles were measured at the time points of pretreatment, 15 min, 2 and 5 hours post treatment. All the results were expressed as mean±SD. One-way analysis of variance (ANOVA) followed by a multiple comparison test were applied among the groups, p<0.05 accepted as significant.

[3] = day 7 after CFA, low dose groups (46 and JK-02A 10 mg/kg, JK-02H 5 mg/kg)
[4] = day 7 after CFA, single low dose i.v. (46 and JK-02A 10 mg/kg, JK-02H 5 mg/kg)
[5] = day 14 after CFA, high dose groups (46 and JK-02A 40 mg/kg, JK-02H 20 mg/kg)
[6] = day 14 after CFA, single high dose i.v. (46 and JK-02A 40 mg/kg, JK-02H 20 mg/kg)
[7] = day 14 after CFA, single high dose i.v. (46 and JK-02A 40 mg/kg, JK-02H 20 mg/kg), 5 h post treatment
[8] = individual animal, high dose i.v. (46 and JK-02A 40 mg/kg, JK-02H 20 mg/kg)
[9] = individual animal, low dose i.v. (46 and JK-02A 10 mg/kg, JK-02H 5 mg/kg)
[10] = individual animal, high dose i.v. (46 and JK-02A 40 mg/kg, JK-02H 20 mg/kg), two repeated stimuli
[11] = individual animal, low dose i.v. (46 and JK-02A 10 mg/kg, JK-02H 5 mg/kg), two repeated stimuli

SMILES: CCCOc1ccc(O)c(F)c1C(=O)c1ccc(C(=O)N[C@@H]2CNC[C@H]2NC(=O)c2ccc3cn[nH]c3c2)cc1 [compound 46]
- Weight Bearing Test Values (Mean ± SD), Baseline [1, 3]: 48.54 ± 7.73 g
- Weight Bearing Test Values (Mean ± SD), 15 min [1, 4]: 44.76 ± 8.54 g
- Weight Bearing Test Values (Mean ± SD), 2 h [1, 4]: 41.09 ± 8.58 g
- Weight Bearing Test Values (Mean ± SD), Baseline [1, 5]: 46.73 ± 5.58 g
- Weight Bearing Test Values (Mean ± SD), 15 min [1, 6]: 34.03 ± 5.67 g
- Weight Bearing Test Values (Mean ± SD), 2 h [1, 6]: 44.46 ± 11.29 g
- Weight Bearing Test Values (Mean ± SD), 5 h [1, 7]: 41.06 ± 6.98 g
- Weight Bearing Values of Individual Animal, Day 14, 15 min, Left [1, 8]: 62.4 g and 64.0 g and 61.5 g and 63.7 g and 59.2 g and 39.7 g and 52.6 g and 68.4 g
- Weight Bearing Values of Individual Animal, Day 14, 15 min, Right [1, 8]: 96.4 g and 104.7 g and 95.1 g and 95.7 g and 96.9 g and 71.9 g and 75.2 g and 107.8 g
- Weight Bearing Values of Individual Animal, Day 14, 15 min, Δ [1, 8]: 34.0 g and 40.7 g and 33.6 g and 32.0 g and 37.7 g and 32.2 g and 22.6 g and 39.4 g
- Weight Bearing Values of Individual Animal, Day 14, 2 h, Left [1, 8]: 59.9 g and 68.1 g and 65.7 g and 44.8 g and 56.2 g and 36.9 g and 65.4 g and 67.0 g
- Weight Bearing Values of Individual Animal, Day 14, 2 h, Right [1, 8]: 107.1 g and 101.0 g and 112.2 g and 110.9 g and 98.5 g and 87.3 g and 94.8 g and 107.9 g
- Weight Bearing Values of Individual Animal, Day 14, 2 h, Δ [1, 8]: 47.2 g and 32.9 g and 46.5 g and 66.1 g and 42.3 g and 50.4 g and 29.4 g and 40.9 g
- Weight Bearing Values of Individual Animal, Day 14, 5 h, Left [1, 8]: 55.9 g and 34.5 g and 56.8 g and 58.2 g and 47.3 g and 31.3 g and 41.6 g and 73.0 g
- Weight Bearing Values of Individual Animal, Day 14, 5 h, Right [1, 8]: 102.4 g and 85.3 g and 101.8 g and 88.4 g and 90.0 g and 66.5 g and 76.3 g and 116.4 g
- Weight Bearing Values of Individual Animal, Day 14, 5 h, Δ [1, 8]: 46.5 g and 50.8 g and 45.0 g and 30.2 g and 42.7 g and 35.2 g and 34.7 g and 43.4 g
- Weight Bearing Values of Individual Animal, Day 7, 15 min, Left [1, 9]: 47.4 g and 40.2 g and 67.4 g and 60.4 g and 40.3 g and 39.0 g and 24.3 g and 58.1 g
- Weight Bearing Values of Individual Animal, Day 7, 15 min, Right [1, 9]: 93.5 g and 94.1 g and 110.9 g and 89.1 g and 91.2 g and 81.7 g and 62.7 g and 112.0 g
- Weight Bearing Values of Individual Animal, Day 7, 15 min, Δ [1, 9]: 46.1 g and 53.9 g (2×) and 43.5 g and 28.7 g and 50.9 g and 42.7 g and 38.4 g
- Weight Bearing Values of Individual Animal, Day 7, 2 h, Left [1, 9]: 48.5 g and 39.0 g and 65.0 g and 66.3 g and 48.4 g and 43.4 g and 38.0 g and 54.8 g
- Weight Bearing Values of Individual Animal, Day 7, 2 h, Right [1, 9]: 91.5 g and 81.8 g and 102.9 g and 97.7 g and 80.7 g and 82.3 g and 81.5 g and 113.7 g
- Weight Bearing Values of Individual Animal, Day 7, 2 h, Δ [1, 9]: 43.0 g and 42.8 g and 37.9 g and 31.4 g and 32.3 g and 38.9 g and 43.5 g and 58.9 g
- First Baseline, Balance Left, individual animal ([1]; individual animal, pretreatment day 7, left (CFA-injected) hind paw): 31.3 g and 27.8 g and 41.8 g and 63.2 g and 73.9 g and 49.6 g and 33.9 g and 60.4 g
- First Baseline, Balance Right, individual animal ([1]; individual animal, pretreatment day 7, right hind paw): 83.6 g and 87.0 g and 91.8 g and 105.0 g and 114.0 g and 102.9 g and 71.5 g and 114.4 g
- First Baseline, Balance Δ, individual animal ([1]; individual animal, pretreatment day 7, right minus left): 52.3 g and 59.2 g and 50.0 g and 41.8 g and 40.1 g and 53.3 g and 37.6 g and 54.0 g
- Second Baseline, Balance Left, individual animal ([1]; individual animal, pretreatment day 14, left (CFA-injected) hind paw): 61.3 g and 45.0 g and 70.0 g and 51.2 g and 34.7 g and 24.8 g and 43.5 g and 65.5 g
- Second Baseline, Balance Right, individual animal ([1]; individual animal, pretreatment day 14, right hind paw): 115.3 g and 95.2 g and 119.5 g and 104.5 g and 76.6 g and 67.1 g and 84.3 g and 107.3 g
- Second Baseline, Balance Δ, individual animal ([1]; individual animal, pretreatment day 14, right minus left): 54.0 g and 50.2 g and 49.5 g and 53.3 g and 41.9 g and 42.3 g and 40.8 g and 41.8 g
- Von Frey Filament Test Values (Mean ± SD), Baseline [2, 3]: 6.81 ± 0.74 g
- Von Frey Filament Test Values (Mean ± SD), 15 min [2, 4]: 7.12 ± 1.20 g
- Von Frey Filament Test Values (Mean ± SD), 2 h [2, 4]: 7.69 ± 1.59 g
- Von Frey Filament Test Values (Mean ± SD), Baseline [2, 5]: 7.01 ± 0.75 g
- Von Frey Filament Test Values (Mean ± SD), 15 min [2, 6]: 8.17 ± 1.50 g
- Von Frey Filament Test Values (Mean ± SD), 2 h [2, 6]: 8.04 ± 1.83 g
- Von Frey Filament Test Values (Mean ± SD), 5 h [2, 7]: 7.66 ± 1.72 g
- Von Frey Values of Individual Animal, Day 14, 15 min [2, 10]: 7.3 g and 9.0 g and 8.3 g and 7.5 g and 9.6 g (2×) and 10.8 g and 7.0 g and 6.7 g and 8.2 g (2×) and 5.5 g and 5.6 g and 8.0 g and 10.5 g and 8.9 g
- Von Frey Values of Individual Animal, Day 14, 2 h [2, 10]: 5.8 g and 7.3 g and 8.2 g and 7.0 g and 6.2 g and 7.1 g and 8.9 g (2×) and 7.2 g and 5.9 g (2×) and 8.5 g and 9.7 g and 8.8 g and 11.1 g and 12.1 g
- Von Frey Values of Individual Animal, Day 14, 5 h [2, 10]: 6.6 g (2×) and 7.5 g (2×) and 7.1 g and 6.1 g and 5.9 g and 6.3 g and 8.8 g and 6.8 g and 5.8 g and 7.0 g and 8.7 g and 9.9 g and 11.7 g and 10.3 g
- Von Frey Values of Individual Animal, Day 7, 15 min [2, 11]: 7.6 g (2×) and 7.5 g (2×) and 6.8 g and 6.6 g and 5.5 g and 8.2 g and 5.9 g and 7.9 g and 4.6 g and 5.3 g and 9.0 g and 8.9 g and 7.8 g and 7.2 g
- Von Frey Values of Individual Animal, Day 7, 2 h [2, 11]: 9.3 g (2×) and 8.8 g and 9.4 g (2×) and 8.6 g and 6.5 g (3×) and 5.8 g and 5.9 g (2×) and 7.4 g and 5.5 g and 8.4 g and 9.8 g
- First Baseline, Von Frey, individual animal ([2]; individual animal, pretreatment day 7, two repeated stimuli per animal): 7.4 g and 5.4 g and 6.2 g and 6.1 g (2×) and 6.4 g and 6.3 g and 5.5 g and 7.5 g and 7.0 g and 7.3 g and 6.7 g and 7.6 g (2×) and 8.1 g and 7.7 g
- Second Baseline, Von Frey, individual animal ([2]; individual animal, pretreatment day 14 after washing-out, two repeated stimuli per animal): 7.6 g (2×) and 7.7 g and 6.4 g and 6.2 g (2×) and 5.5 g and 5.7 g and 7.1 g and 7.9 g and 7.0 g and 7.3 g and 7.2 g (2×) and 8.1 g and 7.5 g
